Test results reported in ChEMBL document CHEMBL1152268, “Discovery and SAR of novel 4-thiazolyl-2-phenylaminopyrimidines as potent inhibitors of spleen tyrosine kinase (SYK)” (Bioorg Med Chem Lett, 2008).
Calls of active or inactive are those of the source. The calls are words filed in the database; no cut-off is given here.

How the values were obtained:
[1] = biological target: Cyclin-dependent kinase 2 (Homo sapiens, UniProt P24941); test: Inhibition of CDK2
[2] = biological target: Tyrosine-protein kinase SYK (Homo sapiens, UniProt P43405)
[3] = biological target: Proto-oncogene tyrosine-protein kinase Src (Homo sapiens, UniProt P12931); test: Inhibition of SRC
Proto-oncogene tyrosine-protein kinase Src, sequence (P12931 2-536 limits assumed): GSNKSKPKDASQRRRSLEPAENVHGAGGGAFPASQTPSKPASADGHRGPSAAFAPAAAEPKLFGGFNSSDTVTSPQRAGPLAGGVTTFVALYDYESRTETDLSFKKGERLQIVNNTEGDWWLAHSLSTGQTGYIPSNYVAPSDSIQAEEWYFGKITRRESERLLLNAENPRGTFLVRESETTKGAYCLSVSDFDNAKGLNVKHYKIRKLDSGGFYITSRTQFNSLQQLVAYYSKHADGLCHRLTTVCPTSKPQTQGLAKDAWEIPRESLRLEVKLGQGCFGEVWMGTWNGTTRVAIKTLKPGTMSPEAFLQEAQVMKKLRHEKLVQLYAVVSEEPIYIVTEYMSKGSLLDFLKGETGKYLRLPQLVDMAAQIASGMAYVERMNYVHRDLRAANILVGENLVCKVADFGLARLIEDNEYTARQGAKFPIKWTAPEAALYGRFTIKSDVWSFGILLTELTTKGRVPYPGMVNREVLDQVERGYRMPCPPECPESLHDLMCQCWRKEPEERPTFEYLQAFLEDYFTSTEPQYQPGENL

[4] = biological target: T1, Tyrosine-protein kinase ZAP-70 (Homo sapiens, UniProt P43403); test: (§1) Inhibition of ZAP70
T1 sequence (P43403 whole entry): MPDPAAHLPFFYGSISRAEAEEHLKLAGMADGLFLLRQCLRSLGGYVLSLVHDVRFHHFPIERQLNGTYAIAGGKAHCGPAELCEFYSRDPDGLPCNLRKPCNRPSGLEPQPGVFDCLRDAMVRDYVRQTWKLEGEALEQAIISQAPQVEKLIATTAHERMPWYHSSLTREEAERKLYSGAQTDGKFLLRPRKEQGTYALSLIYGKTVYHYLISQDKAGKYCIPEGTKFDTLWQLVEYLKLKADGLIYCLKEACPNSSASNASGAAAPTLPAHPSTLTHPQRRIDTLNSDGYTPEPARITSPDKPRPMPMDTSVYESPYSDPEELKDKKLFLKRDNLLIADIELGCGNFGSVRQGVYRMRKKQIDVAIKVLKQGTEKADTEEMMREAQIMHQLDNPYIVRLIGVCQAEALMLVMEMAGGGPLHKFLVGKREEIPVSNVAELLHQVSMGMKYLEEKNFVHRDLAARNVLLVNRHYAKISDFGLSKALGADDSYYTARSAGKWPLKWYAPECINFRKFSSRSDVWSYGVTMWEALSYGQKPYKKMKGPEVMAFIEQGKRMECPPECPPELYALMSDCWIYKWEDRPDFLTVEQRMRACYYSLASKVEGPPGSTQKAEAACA

Liver microsomes = test: (§2) Metabolic stability in rat liver microsomes after 30 mins; format: ADME, Microsome; settings: microsomes, 0.5 h
[5] = as §2; format: ADME, Microsome; settings: liver microsomes, read-out: Stability
[6] = biological target: T2, Tyrosine-protein kinase ZAP-70 (Homo sapiens) (UniProt P43403); test: as §1
T2 sequence (whole entry): T1 sequence (P43403 whole entry)

Ki [1] [nM] | Ki [2] [nM] | Ki [3] [nM] | Ki [4] [nM] | Activity (Liver microsomes) | remaining at 0.5 h [5] [%] | IC50 [2] [nM] | Activity | Activity [6] | SMILES
100 | 56 | 2030 | 1030 | 5% |  |  |  |  | Cc1cc(C)cc(Nc2nccc(-c3nc(C)cs3)n2)c1
2450 | 82 | 2980 | 1550 | Not Active |  |  |  |  | Cc1cccc(Nc2nccc(-c3nccs3)n2)c1
> 3330 |  | > 3330 | 240 |  |  |  |  |  | Cc1cc(C)cc(Nc2nccc(-c3nc(C)c(C(=O)N[C@@H](C)CO)s3)n2)c1
> 2500 | 23 | 3700 | 1140 | Not Active |  |  |  |  | COc1cc(Nc2nccc(-c3ncc(C)s3)n2)cc(C(F)(F)F)c1
> 5000 | 14 | 862 | 318 |  | 12 |  |  |  | COc1cc(Nc2nccc(-c3nccs3)n2)cc(OC)c1
2400 | 10 | 2230 | 450 |  | 35 |  |  |  | Cc1cc(C)cc(Nc2nccc(-c3nc(CO)cs3)n2)c1
 |  |  |  |  |  | 8 |  |  | NCCCNc1nc(-c2ccc(N3CCOCC3)cc2)cc2ccccc12
 | 630 |  |  |  |  |  |  |  | c1ccc(Oc2cccc(Nc3nccc(-c4nccs4)n3)c2)cc1
1500 | 50 | 4000 | 680 |  | 50 |  |  |  | OCc1csc(-c2ccnc(Nc3cc(O)cc(C(F)(F)F)c3)n2)n1
> 5000 | 8 | 1060 | 419 |  | 24 |  |  |  | Cc1cc(C)cc(Nc2nccc(-c3nccs3)n2)c1
> 3330 | 210 | > 3330 | 1500 |  |  |  |  |  | Cc1cc(C)cc(Nc2nccc(-c3nc(C)c(C(=O)N[C@H](C)CO)s3)n2)c1
> 5000 | 26 | 422 | 677 |  | 68 |  |  |  | OCCCOc1cc(Nc2nccc(-c3nccs3)n2)cc(C(F)(F)F)c1
2270 | 32 | 3500 | 560 |  | 65 |  |  |  | Cc1cc(C)cc(Nc2nccc(-c3nc(C)c(CCO)s3)n2)c1
> 5000 | 110 | 1360 | 891 | Not Active |  |  |  |  | Cc1cc(Nc2nccc(-c3nccs3)n2)cc(C(F)(F)F)c1
1100 | 23 | 348 | 410 | 15% |  |  |  |  | Cc1cc(C)cc(Nc2nccc(-c3ncc(C)s3)n2)c1
> 2500 | 33 | 3500 | 1000 | Not Active |  |  |  |  | COc1cc(Nc2nccc(-c3nc(CO)cs3)n2)cc(C(F)(F)F)c1
> 2500 | 22 | 3500 | 3500 |  | 80 |  |  |  | Cc1cc(Nc2nccc(-c3nc(C)c(CCO)s3)n2)cc(C(F)(F)F)c1
> 5000 | 28 | 1830 | 2150 |  | 54 |  |  |  | COc1cc(Nc2nccc(-c3nccs3)n2)cc(C(F)(F)F)c1
> 5000 | 1820 | 153 |  | Not Active |  |  | inactive | inactive | Cc1ccc(C)c(Nc2nccc(-c3nccs3)n2)c1
1650 | 44 | 991 | 754 |  | 24 |  |  |  | Oc1cc(Nc2nccc(-c3nccs3)n2)cc(C(F)(F)F)c1
> 2500 | 4 | 2000 | 270 |  | 37 |  |  |  | Cc1cc(C)cc(Nc2nccc(-c3ncc(CO)s3)n2)c1
1500 | 10 | 1800 | 750 |  | 64 |  |  |  | Cc1cc(Nc2nccc(-c3nc(CO)cs3)n2)cc(C(F)(F)F)c1
